Assay results published in patent US20190352276A1, “INHIBITORS OF BRUTON'S TYROSINE KINASE” (Joint Stock Company "Biocad", priority 2016, published 2019).
Read-outs that look alike come from different tables or passages of the source.

How the values were obtained:
[1] = Permeability through the monolayer of Caco-2 cells; format: in vitro ADME; details: human; for Papp A→B at 2 h, 10 μM / Papp B→A at 2 h, 10 μM: 2 h at 37° C.; for efflux ratio at 2 h, 10 μM: read-out: efflux (Papp B-A/Papp A-B)
Summary of the method: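 Caco-2 monolayers grown 21 days on 0.4 μm transwell filters, integrity checked with Lucifer Yellow. Compounds at 10 μM were added apically at pH 6.5 (A→B) or basolaterally at pH 7.4 with 1% BSA (B→A) and sampled after 2 h. Concentrations by HPLC; Papp calculated, efflux ratio as Papp B-A/Papp A-B.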

[2] = biological target: T1, recombinant Btk kinase enzyme (Homo sapiens, UniProt Q06187); assay: In vitro inhibition of Btk kinase activity (ADP-Glo); format: biochemical; details: read-out: IC50 kinase BTK
T1 construct: purchased SignalChem B10-10H
T1 sequence (Q06187 whole entry): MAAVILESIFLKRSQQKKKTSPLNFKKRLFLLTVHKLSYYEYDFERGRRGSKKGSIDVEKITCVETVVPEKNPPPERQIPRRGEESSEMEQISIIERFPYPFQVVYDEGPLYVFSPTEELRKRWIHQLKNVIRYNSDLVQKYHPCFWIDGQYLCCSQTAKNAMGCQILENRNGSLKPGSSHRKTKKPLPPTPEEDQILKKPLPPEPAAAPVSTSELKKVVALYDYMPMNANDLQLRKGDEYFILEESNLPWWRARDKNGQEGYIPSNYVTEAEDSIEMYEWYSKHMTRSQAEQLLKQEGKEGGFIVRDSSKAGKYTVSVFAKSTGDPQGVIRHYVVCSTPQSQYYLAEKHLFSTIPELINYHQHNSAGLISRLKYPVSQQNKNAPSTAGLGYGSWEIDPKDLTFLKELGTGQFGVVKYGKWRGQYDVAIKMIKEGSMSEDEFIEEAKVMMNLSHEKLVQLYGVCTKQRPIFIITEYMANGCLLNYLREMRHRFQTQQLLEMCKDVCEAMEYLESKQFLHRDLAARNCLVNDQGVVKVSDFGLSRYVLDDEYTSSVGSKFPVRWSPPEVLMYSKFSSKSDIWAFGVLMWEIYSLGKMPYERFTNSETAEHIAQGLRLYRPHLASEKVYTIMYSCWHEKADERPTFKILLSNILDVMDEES
Protocol: To assess Btk kinase activity described herein, SignalChem kinase system was used. Btk kinase activity was determined in the reaction between recombinant Btk kinase enzyme (SignalChem #B10-10H) and Poly (4:1 Glu, Tyr) peptide substrate in the presence of the inhibitor.
(§1) Staurosporine (Abcam Biochemicals, ab146588) was used as a reference inhibitor and 0.1% DMSO in the reaction buffer—as a negative control. The solution of 0.5 mg/mL peptide substrate and 50 &M ATP in the same buffer were added; the solution was incubated for 180 minutes at 37° C. To detect the amount of ATP taken up during the kinase reaction, the equivalent amount of ADP (from the ADP Glo Detection Kit (Promega, #V9101)) was used according to the protocol. The reaction mixture was equilibrated to room temperature. 25 µL of ADP-Glo Reagent were added into each well; the plate was incubated for 40 minutes. 50 μL of Kinase Detection Reagent were added; the plate was incubated for 30 minutes. The luminescence was measured with multimode plate reader (Tecan Infinite M200Pro, Switzerland). IC50 values were calculated using Magellan 7.2 software (Tecan, Switzerland) approximating experimental points by four-parameter logistic model with the optimization by Levenberg-Marquardt.

[3] = test system: Mino (mantle cell lymphoma); assay: Antiproliferative activity, Mino cells (Alamar Blue); format: cell-based; details: Homo sapiens
Summary of the method: (§2)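 After at least one passage post-thaw, cells were seeded at ≈3*10^4 per well in RPMI-1640 containing 10% FBS. They were treated with compound dilutions (DMSO under 1%) for 72 h and then with Alamar Blue for 14-16 h. Living-cell fluorescence at 540/590 nm gave IC50 values through logistic fitting.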

[4] = test system: Z-138 (mantle cell lymphoma); assay: Antiproliferative activity, Z-138 cells (Alamar Blue); format: cell-based; details: Homo sapiens
Summary of the method: as §2

[5] = test system: DOHH2 (follicular lymphoma); assay: Antiproliferative activity, DOHH2 cells (Alamar Blue); format: cell-based; details: Homo sapiens, DOHH-2, Table 10, 72 h, average of several tests
Summary of the method: as §2

[6] = General cytotoxicity on HepG2 cells (CC50; therapeutic index CC50 HepG2/IC50 Mino); format: cell-based; details: human, HepG2 cells (hepatocellular carcinoma), 72 hours, Alamar Blue
Summary of the method: (§3)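 Cells seeded at 2*10^4 per well in DMEM, compounds added after 24 h at 200 μM to 4 μM final and incubated 72 h. Viability read with Alamar Blue to derive CC50; therapeutic index is CC50 (HepG2) divided by IC50 (Mino).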

[7] = test system: HepG2 cells (hepatocellular carcinoma); assay: as above; format: cell-based; details: therapeutic index
Summary of the method: as §3

[8] = Stability in human blood plasma; details: 10 μM in pooled human blood plasma, incubated 4 hours at 37° C.
[9] = Chemical stability in artificial gastric fluid (SGF without enzymes); details: 10 μM in SGF without enzymes, pH=1.4, 37° C.
Protocol: The initial candidate solution (10 mM in DMSO) was diluted with the working solution of SGF to the concentration of 10 μm (test solution). The test solution was incubated in a dry block heater at 37° C. We determined peak areas of the compounds corresponding to the start of the test (before incubating) and the end of the test (after incubating in a dry block heater at 37° C.) by HPLC using Agilent1200 chromatograph (Agilent, USA). We used gradient elution (1 mL/min flow rate). We determined amount of substance in the sample in % after incubation.
We evaluated the stability of the compounds.

[10] = biological target: T2, EGFR (Homo sapiens, UniProt P00533); assay: In vitro kinase panel: EGFR; format: biochemical; details: Table 9 kinase panel
T2 construct: purchased SignalChem E10-11G
T2 sequence (P00533 672-1210 limits assumed): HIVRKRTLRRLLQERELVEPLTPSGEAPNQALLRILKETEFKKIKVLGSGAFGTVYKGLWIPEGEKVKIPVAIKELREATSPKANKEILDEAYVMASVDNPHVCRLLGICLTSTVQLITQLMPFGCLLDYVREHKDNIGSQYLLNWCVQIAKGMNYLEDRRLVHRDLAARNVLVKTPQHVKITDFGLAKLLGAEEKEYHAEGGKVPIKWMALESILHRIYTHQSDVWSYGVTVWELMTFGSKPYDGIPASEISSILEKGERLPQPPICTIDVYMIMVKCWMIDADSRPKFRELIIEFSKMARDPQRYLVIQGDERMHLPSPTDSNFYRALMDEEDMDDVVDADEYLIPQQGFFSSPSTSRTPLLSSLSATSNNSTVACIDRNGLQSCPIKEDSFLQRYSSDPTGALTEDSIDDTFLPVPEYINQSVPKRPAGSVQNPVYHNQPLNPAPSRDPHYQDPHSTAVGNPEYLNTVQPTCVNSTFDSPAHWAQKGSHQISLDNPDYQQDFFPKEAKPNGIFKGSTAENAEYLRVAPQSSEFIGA
Protocol: as §1, with “The measurements were carried out in a 25 μL reaction volume using a 96-well plate (Corning, #3642). The kinase enzyme and inhibitor were pre-incubated for 10 minutes in the reaction buffer containing 25 mM of MOPS (pH 7.2), 12.5 mM of 0-glycerophosphate, 27 mM of MgCl2, 2 mM of MnCl2, 5 mM of EGTA, 2 mM of EDTA, 0.3 mM of DTT, and 1.2 mg/mL of bovine serum albumin. Staurosporine” for “Staurosporine”
For active compounds selected by screening using the target enzyme BTK, the values of IC50 were determined on a kinase panel: EGFR (SignalChem, #E10-11G), ITK (SignalChem, #I13-10G) and TEC (SignalChem, #T03-10G).

[11] = Table 10, 72 h, average of several tests
[12] = Table 10, average of several tests

Row | SMILES | Papp A→B at 2 h, 10 μM [1] [×10⁻⁶ cm/s] | Papp B→A at 2 h, 10 μM [1] [×10⁻⁶ cm/s] | efflux ratio at 2 h, 10 μM [1] | IC50 ([2]; Table 8, ADP-Glo) [µM] | IC50 [3, 11] [µM] | IC50 [4, 11] [µM] | IC50 [5] [µM] | Amount of substance in the sample, % (stability in human blood plasma) [8] [%] | Amount of substance in the sample in % (chemical stability) [9] [%] | IC50 ([2]; Table 9 kinase panel) [µM] | IC50 [10] [µM] | IC50 ([3]; Table 11, 72 h) [µM] | IC50 ([4]; Table 11, 72 h) [µM] | CC50 at 72 h [6, 12] [µM] | CC50 (HepG2)/IC50 (Mino) ([7]; Table 10) | CC50 at 72 h ([6]; Table 11) [µM] | CC50 (HepG2)/IC50 (Mino) ([7]; Table 11)
1 | C=CC(=O)N1CCC[C@@H](n2nc(-c3ccc(Oc4cccnc4C#N)cc3)c3c(N)ncc(Cl)c32)C1 [BCD-BTK-236, 3-(4-{4-amino-7-chloro-1-[(3R)-1-(prop-2-enoyl)piperidin-3-yl]-1H-pyrazolo[4,3-c]pyridin-3-yl}phenoxy) pyridine-2-carbonitrile] | 6.51 | 2.87 | 0.44 | 0.0174 | 8.93 | 11.1 | 3.79 | 96.8 | 100 |  |  |  |  | 27.1 | 3.03 |  | 
2 | C=CC(=O)N1CCC[C@@H](n2nc(-c3ccc(Oc4ccncc4C(N)=O)cc3)c3cncc(Cl)c32)C1 [BCD-BTK-203, (R)-4-(4-(1-(1-acryloylpiperidin-3-yl)-7-chloro-1H-pyrazolo[4,3-c]pyridin-3-yl)phenoxy)nicotinamide] | 9.31 | 8.4 | 0.9 | 1.1 | 13.6 | 16 | 14 | 84.7 |  |  |  |  |  | 61.9 | 4.55 |  | 
3 | C=CC(=O)N1CCC[C@@H](n2nc(-c3ccc(Oc4ccncc4)cc3)c3c(N)ncc(C#N)c32)C1 [BCD-BTK-134, (R)-1-(1-acryloylpiperidin-3-yl)-4-amino-3-(4-(pyridin-4-yloxy)phenyl)-1H-pyrazolo[4,3-c]pyridin-7-carbonitrile] | 25.8 | 12 | 0.4 |  |  |  |  |  |  | 0.00116 | 0.127 | 11.6 | 21.2 |  |  | 64 | 5.80
4 | C=CC(=O)N1CC[C@@H](n2nc(-c3ccc(Oc4ccncc4)cc3)c3cncc(Cl)c32)C1 [BCD-BTK-272, (R)-1-(3-(7-chloro-3-(4-(pyridin-4-yloxy)phenyl)-1H-pyrazolo[4,3-c]pyridin-1-yl)pyrrolidin-1-yl)prop-2-en-1-one] | 6.3 | 1.1 | 0.18 | 0.0548 | 6.83 | 14.9 | 5.23 |  | 100 |  |  |  |  | 17.6 | 2.57 |  | 
5 | C=CC(=O)N1CCC[C@@H](n2nc(-c3ccc(C(=O)Nc4ccccn4)cc3)c3c(N)ncc(Cl)c32)C1 [BCD-BTK-238, 4-{4-amino-7-chloro-1-[(3R)-1-(prop-2-enoyl)piperidin-3-yl]-1H-pyrazolo[4,3-c]pyridin-3-yl}-N-(pyridin-2-yl)benzamide] | 6.75 | 4.78 | 0.71 | 0.0189 | 10.6 | 9.44 | 4.05 |  | 100 |  |  |  |  | 24.8 | 2.34 |  | 
6 | C=CC(=O)N1CCC[C@@H](n2nc(-c3ccc(Oc4cccnc4C#N)cc3)c3cncc(Cl)c32)C1 [BCD-BTK-218, 3-(4-{7-chloro-1-[1-(prop-2-enoyl)piperidin-3-yl]-1H-pyrazolo[4,3-c]pyridin-3-yl}phenoxy)pyridine-2-carbonitrile] | 20.2 | 17.4 | 0.86 | 0.0555 | 1.1 | 8.58 | 3.55 | 92.0 |  |  |  |  |  | 26.2 | 23.92 |  | 
7 | C=CC(=O)N1CCC[C@@H](n2nc(-c3cnc(C(=O)Nc4ccccn4)nc3)c3cncc(Cl)c32)C1 [BCD-BTK-229, (R)-5-(1-(1-acryloylpiperidin-3-yl)-7-chloro-1H-pyrazolo[4,3-c]pyridin-3-yl)-N-(pyridin-2-yl)pyrimidine-2-carboxamide] | 10.7 | 12.2 | 1.14 | 0.0439 | 36.3 | 77.1 | 41.2 | 83.5 | 99.8 |  |  |  |  | > 100 | >2.75 |  | 

The remaining molecules from weak to strong by IC50 ([2]; Table 8, ADP-Glo), led by results:

Row | Papp A→B at 2 h, 10 μM [1] [×10⁻⁶ cm/s] | Papp B→A at 2 h, 10 μM [1] [×10⁻⁶ cm/s] | efflux ratio at 2 h, 10 μM [1] | IC50 ([2]; Table 8, ADP-Glo) [µM] | IC50 [3, 11] [µM] | IC50 [4, 11] [µM] | IC50 [5] [µM] | Amount of substance in the sample, % (stability in human blood plasma) [8] [%] | Amount of substance in the sample in % (chemical stability) [9] [%] | IC50 ([2]; Table 9 kinase panel) [µM] | IC50 [10] [µM] | IC50 ([3]; Table 11, 72 h) [µM] | IC50 ([4]; Table 11, 72 h) [µM] | SMILES | CC50 at 72 h [6, 12] [µM] | CC50 (HepG2)/IC50 (Mino) ([7]; Table 10) | CC50 at 72 h ([6]; Table 11) [µM] | CC50 (HepG2)/IC50 (Mino) ([7]; Table 11)
8 | 9.5 | 2.2 | 0.23 | 0.0132 | 3.61 | 12.6 | 4.99 | 87.2 | 100 |  |  |  |  | C=CC(=O)N1CC[C@H](n2nc(-c3ccc(Oc4ccncc4)cc3)c3cncc(Cl)c32)C1 [BCD-BTK-266, (S)-1-(3-(7-chloro-3-(4-(pyridin-4-yloxy)phenyl)-1H-pyrazolo[4,3-c]pyridin-1-yl)pyrrolidin-1-yl)prop-2-en-1-one] | 12 | 3.33 |  | 
9 | 6.9 | 3.5 | 0.5 | 0.0126 | 6.25 | 6.99 | 3.25 |  |  |  |  |  |  | C=CC(=O)N1CCC[C@@H](n2nc(-c3ccc(C(=O)Nc4ccc(F)cn4)cc3)c3c(N)ncc(Cl)c32)C1 [BCD-BTK-237, 4-{4-amino-7-chloro-1-[(3R)-1-(prop-2-enoyl)piperidin-3-yl]-1H-pyrazolo[4,3-c]pyridin-3-yl}-N-(5-fluoropyridin-2-yl)benzamide] | 28.4 | 4.54 |  | 
10 |  |  |  | 0.0115 | 5.44 | 4.11 | 1.11 |  | 100 |  |  |  |  | C=CC(=O)N1CCC[C@@H](n2nc(-c3ccc(C(=O)Nc4ncccc4F)cc3)c3c(N)ncc(Cl)c32)C1 [BCD-BTK-233, (R)-4-(1-(1-acryloylpiperidin-3-yl)-4-amino-7-chloro-1H-pyrazolo[4,3-c]pyridin-3-yl)-N-(3-fluoropyridin-2-yl)benzamide] | 18.4 | 3.39 |  | 
